Experimental data published in patent US4427660A, “Formyl-methionyl chemotatic peptide antibiotic conjugates useful in treating infections” (priority 1982, dated 1984).
Several values for one entry are separate records, joined by “and”; a condition that tells them apart may be missing. Equal entries are not always repeated. Where two headings read alike, the source gives them in different places. Positions of bridges follow the written chain, without caps; N, C: chain ends. Non-standard residues stand in square brackets, D forms with d. Residues, ends and D or L forms follow the SMILES beside them. *: point of attachment. Ileψ(thiazoline)Cys = CC[C@H](C)[C@H](N)C1=N[C@H](C(=O)*)CS1; dOrn = NCCC[C@@H](N)C(=O)O; Nle = CCCC[C@H](N)C(=O)O; For = O=C*

Key:
[1] = test system: Rabbit polymorphononuclear leukocytes (neutrophils); format: cell-based; settings: for times more active than f-Met-Phe-OH: chemotactic activity and lysosomal enzyme secretion-inducing activity alike
Protocol: Rabbit polymorphononuclear leukocytes (neutrophils) were obtained 12 to 14 hours after the intraperitoneal injection of 0.1 percent glycogen, as described in Becker et al (Z. Immunitaetsforsch Exp. Klin. Immunol., Volume 143, Page 466 1972). They were washed in Hanks' balanched salt solution containing 0.01 M tris (hydroxymethyl) aminomethane, pH 7.2, 1 mg/ml of glucose, and 1 mg/ml of crystalline bovine serum albumin. The Hanks' balanced salt solution was the buffer used throughout the work.
The assay employed a modified Boyden chamber as described by Becker et al, supra. […] The loaded chambers were incubated for 30 minutes at 37° C. This time interval was chosen as giving, for the particular batch of filters used, the greatest difference between the number of cells moving into the filter with no peptide in the lower compartment (background) and the maximum number of cells moving into the filter when stimulated by peptide. At the end of the incubation the filters were removed and stained and the number of cells in five high-power (400 magnification) fields (5 HPF) were counted and averaged. The results reported are the means of duplicate chambers.
The migration enhancing activities of different peptides were compared essentially as described by Schiffmann et al (J. Immunol., Volume […], Page 1830, 1975) and Showell et al (J. Immunol., Volume 116, Page 99, 1976). In measuring the relative activity of the peptides, a peptide was diluted so that each concentration was one quarter that of the next higher concentration. The concentrations of peptides were chosen on the basis of preliminary experiments to cover the range giving minimum to maximal activity. The chemotactic activity plotted against the logarithm of the molar concentration of peptide yielded a sigmoidal-shaped dose-response curve. Different peptides tested at the same time with the same cells gave curves which were parallel to each other in their linear portions and had the same maximum. The activities of the different peptides are reported as the ED50, i.e., the concentration of chemotactic factor giving 50 percent of the maximum activity.
The results are reported as the means ED50 ±SE (standard error) as determined by at least three separate experiments. In this assay, the lower the value of the ED50, the greater is the chemotactic activity.

[2] = test system: neutrophils; format: cell-based, rabbit
Protocol: The cytochalasin B was diluted from a stock solution containing 4 mg/ml in dimethyl sulphoxide. […] The mixtures were then incubated for five minutes at 37° C. (the release is completed in one minute of less under these conditions) and the tubes centrifuged at 2500 rpm (1400 g) for five minutes at 4° C.
The total concentration of enzyme was measured by lysing the cells with buffer containing 0.1 percent Triton X-100 (Beckmann Instruments, Inc., Fullerton, Calif.). […] The lactic dehydrogenase of each supernate was measured to insure that the peptides induced no release of this cytoplasmic marker.
The lysosomal enzyme-inducing activity for each peptide was obtained from the dose-response curve as its ED50, i.e., the molar concentration of peptide causing 50 percent of the maximal release of either lysozyme or β-glucuronidase. Again, the lower the value of the ED50, the greater is the lysosomal enzyme secretion-inducing activity.

[3] = test system: peritoneal neutrophils; assay: Test for true chemotaxis (Zigmond and Hirsch technique); format: cell-based, rabbit
From the text: Increased penetration of cells into or through the filter of a Boyden chamber system under the stimulus of a chemical agent is generally taken as indicating the chemotactic activity of the agent. Zigmond and Hirsch (J. Exp. Med., Volume 137, Page 387, 1973) have pointed out that the increased migration could result from a response directed by the chemical gradient, that is from chemotaxis, or from increased random locomotion or both. These authors have described a technique for determining if the movement of the cells into the filter of a Boyden chamber system under the influence of different gradients is greater than could be expected on the basis of increased rates of locomotion alone and to that extent is due to a true chemotactic response.
In testing f-Met-Leu-Phe-OH for true chemotaxis, 5×10^6 /ml of washed peritoneal neutrophils obtained twelve hours after the administration of 0.1 percent glycogen were suspended in varying concentrations of the peptide and placed in the upper compartment of a modified Boyden chamber. […] Using the micrometer of the fine adjustment of the microscope, the distance was measured from the top of the filter to the farthest plane of focus still containing two cells. This distance was determined across five fields and averaged. […] The test results were analyzed as described by Zigmond and Hirsch. […]

[4] = target: T1, surface receptor of rabbit polymorphonuclear leukocytes (Oryctolagus cuniculus, UniProt Q05394); assay: Inhibition of F-Nle-leu (3H)PHE binding to rabbit PMN
T1 construct: endogenous in cells; host or cells: rabbit polymorphonuclear leukocytes (neutrophils)
T1 sequence (Q05394 1-352): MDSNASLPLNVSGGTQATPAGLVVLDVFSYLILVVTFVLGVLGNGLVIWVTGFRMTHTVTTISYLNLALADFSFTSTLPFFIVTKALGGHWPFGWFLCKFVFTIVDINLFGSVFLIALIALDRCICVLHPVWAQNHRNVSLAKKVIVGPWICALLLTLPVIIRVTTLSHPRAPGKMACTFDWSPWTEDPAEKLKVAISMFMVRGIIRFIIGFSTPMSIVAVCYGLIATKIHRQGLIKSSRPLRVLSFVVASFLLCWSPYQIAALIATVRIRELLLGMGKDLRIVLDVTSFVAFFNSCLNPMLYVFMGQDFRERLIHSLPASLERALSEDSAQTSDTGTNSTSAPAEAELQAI

[5] = test system: Escherichia coli ATCC 25922; assay: Kirby-Bauer disc assay, inhibitory zone size; format: cell-based; settings: E. coli
Protocol: (§1) In these tables antimicrobial activity is expressed as inhibitory zone size as performed by the Kirby-Bauer assay.
(§2) The experiments in Tables 10-14 were performed using the following bacteria, media and experimental protocol:
(§3) The bacteria were Escherichia coli ATCC 25922 and Pseudomonas aeruginosa ATCC 27835.
(§4) The media was Trypticase soy agar (Baltimore Biological Laboratories, BBL) used as a general growth medium. Broth media was Brain heart infusion broth (BBL) for E. coli and medium 81 [trypticase soy broth without dextrose plus 1% potassium nitrate] for P. aeruginosa.
(§5) Antimicrobial susceptibility was tested on M9 medium [a glucose minimal salts medium (Miller, 1972)] solidified with 1.5% agar (Difco) for the base or 0.7% agar for overlay.
The following is the experimental protocol: Broth cultures of E. coli or P. aeruginosa were grown overnight in broth at 35° C. Cultures were diluted to visually match a 0.5 McFarland turbidity standard (Matsen and Barry, 1974); the numbers of organisms in this suspension ordinarily were .congruent.10^8 viable cells per ml. Ten microliter (ul) was inoculated into 10 ml. of 0.7% M9 agar that was melted and cooled to 46°-50° C. This was overlaid onto a 50 ml base of 1.5% M9 agar in 15 cm diameter petri dishes. The agar overlay was allowed to harden at room temperature for 30 min. Antimicrobial tests disks were placed on the surface of the agar, and the plates were incubated overnight at 35° C. Diameters of zones of inhibition of bacterial growth were measued with a vernier caliper and recorded to the nearest 0.1 mm.

[6] = test system: PMN (neutrophil) from human peripheral blood
Protocol: (§6) The neutrophil (PMN) experiments used 3μ nitrocellulose filters and the monocyte (MN) experiments used 5μ polycarbonate filters. PMNs and MNs were prepared from human peripheral blood by Ficoll-Hypaque and dextran sedimentation techniques. […] PMN experiments were incubated at 37° C. for 3 hours, MN experiments for 90 minutes. After this the filters were removed and stained and counted visually with a microscope.

[7] = test system: MN (monocyte) from human peripheral blood
Protocol: as §6

[8] = test system: leukocytes; settings: relatively weak chemoattractants; cited from earlier work
[9] = test system: Pseudomonas aeruginosa ATCC 27835; assay: Kirby-Bauer disc assay, inhibitory zone size; format: cell-based; settings: P. aeruginosa; disc FML alone; 6 mm = disc, no inhibition
Protocol: as §1, §2, §3, §4, §5
The following is the experimental protocol: Broth cultures of E. coli or P. aeruginosa were grown overnight in broth at 35° C. Cultures were diluted to visually match a 0.5 McFarland turbidity standard (Matsen and Barry, 1974); the numbers of organisms in this suspension ordinarily were .congruent.10^8 viable cells per ml. Ten microliter (ul) was inoculated into 10 ml. of 0.7% M9 agar that was melted and cooled to 46°-50° C. This was overlaid onto a 50 ml base of 1.5% M9 agar in 15 cm diameter petri dishes. […] Diameters of zones of inhibition of bacterial growth were measued with a vernier caliper and recorded to the nearest 0.1 mm.

[10] = test system: human polymorphonuclear leukocytes; assay: Chemotaxis for human polymorphonuclear leukocytes; format: cell-based; settings: human PMN, FIG. 2 text and summary (Table 6)
[11] = test system: Pseudomonas aeruginsa, strain Mangalore; settings: EXPT 1-3 on separate lines
[12] = test system: 4 strains of Pseudomonas aeruginosa
Protocol: Antimicrobial activity was assayed by the MIC Technique using 4 strains of Pseudomonas aeruginosa.

[13] = concentration giving 50 percent of maximum activity, mean of at least three experiments, 30 minutes at 37° C.
[14] = molar concentration causing 50 percent of maximal release, 10 μg/ml cytochalasin B, five minutes at 37° C.
[15] = [F-Met-Leu-Phe] 10^-6, Sulfadiazine 5 μg
[16] = [F-Met-Leu-Phe] 10^-6, Sulfadiazine 50 μg
[17] = [F-Met-Leu-Phe] 10^-6, Sulfadiazine 100 μg
[18] = [F-Met-Leu-Phe] 10^-7, Sulfadiazine 5 μg
[19] = [F-Met-Leu-Phe] 10^-7, Sulfadiazine 50 μg
[20] = [F-Met-Leu-Phe] 10^-7, Sulfadiazine 100 μg
[21] = [F-Met-Leu-Phe] 10^-7, Sulfadiazine 250 μg
[22] = [F-Met-Leu] 10^-3, Sulfadiazine 5 μg
[23] = [F-Met-Leu] 10^-3, Sulfadiazine 25 μg
[24] = [F-Met-Leu] 10^-3, Sulfadiazine 50 μg
[25] = [F-Met-Leu] 10^-3, Sulfadiazine 100 μg
[26] = [F-Met-Leu] 10^-3, Sulfadiazine 250 μg
[27] = [F-Met-Leu] 10^-4, Sulfadiazine 5 μg
[28] = [F-Met-Leu] 10^-4, Sulfadiazine 25 μg
[29] = [F-Met-Leu] 10^-4, Sulfadiazine 50 μg
[30] = [F-Met-Leu] 10^-4, Sulfadiazine 100 μg
[31] = [F-Met-Leu] 10^-4, Sulfadiazine 250 μg

CSCC[C@H](NC=O)C(=O)N[C@@H](CC(C)C)C(=O)N[C@@H](Cc1ccccc1)C(=O)O [FMLP, formyl-methionyl-leucyl-phenylalanine]
times more active than f-Met-Phe-OH [1]: 5,000 times
Chemotactic Activity ED50 ± SE [1, 13]: 7.0 ± 1.7 × 10^-11 M
ED50 ± SE B-Glucoronidase [2, 14]: 2.6 ± 0.32 × 10^-10 M
ED50 ± SE Lysosyme [2, 14]: 2.4 ± 0.31 × 10^-10 M
distance cells moved farther than predicted ([3]; positive gradient (peptide below greater than above the filter)): greater than 10 μm
true chemotaxis (experimental vs predicted values) ([3]; sixty minutes at 37° C., 3.0 μm pore size filter): truly chemotactic
IC50 [4]: 0.5 nM

Nc1ccc(S(=O)(=O)Nc2ncccn2)cc1 [Sulfadiazine, sulfadiazine]
Zone Diameter ([5]; disc 10 μg, alone): 28.0 mm
Zone Diameter ([5]; disc 25 μg, alone): 32.0 mm
% Inhibition PMN [6, 15]: 10.0%
% Inhibition PMN ([6]; [F-Met-Leu-Phe] 10^-6, Sulfadiazine 25 μg): 8.0%
% Inhibition PMN [6, 16]: 39.5%
% Inhibition PMN [6, 17]: 49.0%
% Inhibition PMN [6, 18]: 16.8%
% Inhibition PMN ([6]; [F-Met-Leu-Phe] 10^-7, Sulfadiazine 25 μg): 18.0%
% Inhibition PMN [6, 19]: 65.8%
% Inhibition PMN [6, 20]: 70.8%
% Inhibition PMN [6, 21]: 88.0%
% Inhibition PMN [6, 22]: 19.0%
% Inhibition PMN [6, 23]: 38.0%
% Inhibition PMN [6, 24]: 48.7%
% Inhibition PMN [6, 25]: 73.3%
% Inhibition PMN [6, 26]: 83.9%
% Inhibition PMN [6, 27]: 1.0%
% Inhibition PMN [6, 28]: 14.0%
% Inhibition PMN [6, 29]: 37.5%
% Inhibition PMN [6, 30]: 53.0%
% Inhibition PMN [6, 31]: 41.0%
% Inhibition MN [7, 15]: 22.5%
% Inhibition MN [7, 16]: 21.0%
% Inhibition MN [7, 17]: 82.0%
% Inhibition MN [7, 18]: 14.6%
% Inhibition MN [7, 19]: 13.7%
% Inhibition MN [7, 20]: 41.7%
% Inhibition MN [7, 21]: 96.6%
% Inhibition MN [7, 22]: 2.5%
% Inhibition MN [7, 23]: 13.0%
% Inhibition MN [7, 24]: 36.7%
% Inhibition MN [7, 25]: 43.3%
% Inhibition MN [7, 26]: 98.0%
% Inhibition MN [7, 27]: 20.0%
% Inhibition MN [7, 28]: 17.5%
% Inhibition MN [7, 29]: 17.0%
% Inhibition MN [7, 30]: 60.0%
% Inhibition MN [7, 31]: 97.5%

CC[C@H](C)[C@H](N)C1=N[C@H](C(=O)N[C@@H](CC(C)C)C(=O)N[C@H](CCC(=O)O)C(=O)N[C@H](C(=O)N[C@H]2CCCCNC(=O)[C@H](CC(N)=O)NC(=O)[C@@H](CC(=O)O)NC(=O)[C@H](Cc3cnc[nH]3)NC(=O)[C@@H](Cc3ccccc3)NC(=O)[C@H]([C@@H](C)CC)NC(=O)[C@@H](CCCN)NC2=O)[C@@H](C)CC)CS1 [bacitracin] ({Ileψ(thiazoline)Cys}-L[dE]IK[dOrn]I[dF]H[dD]N; lactam 4-C)
chemoattractant concentration [8]: 10^-5 to 10^-6 M

CSCC[C@H](NC=O)C(=O)N[C@@H](CC(C)C)C(=O)O [f--Met--Leu--OH] (For-Met-Leu-OH)
Chemotactic Activity ED50 ± SE [1, 13]: 4.0 ± 0.45 × 10^-7 M
ED50 ± SE Lysosyme [2, 14]: 1.7 ± 0.17 × 10^-6 M
Zone Diameter ([5]; disc FML alone, 6 mm = disc, no inhibition): 6.0 mm
Zone Diameter [9]: 6.0 mm

CSCC[C@H](NC=O)C(=O)N[C@@H](CC(C)C)C(=O)N[C@@H](Cc1ccccc1)C(=O)N[C@@H](CCCCN)C(=O)O [f--Met--Leu--Phe--Lys--OH] (For-MLFK-OH)
Chemotactic Activity ED50 ± SE [1]: 7.0 ± 1.0 × 10^-10 M
times more active than f-Met-Phe-OH [1]: 500 times
ED50 ± SE B-Glucoronidase [2]: 1.9 ± 0.3 × 10^-9 M
ED50 ± SE Lysosyme [2]: 1.7 ± 0.5 × 10^-9 M

CSCC[C@H](NC(=O)[C@H](CCSC)NC(=O)[C@H](CCSC)NC(=O)[C@H](CCSC)NC=O)C(=O)O [f--Met--Met--Met--Met--OH] (For-MMMM-OH)
Chemotactic Activity ED50 ± SE [1]: 3.0 ± 0.13 × 10^-10 M
ED50 ± SE B-Glucoronidase [2]: 3.0 ± 0.73 × 10^-9 M
ED50 ± SE Lysosyme [2]: 2.4 ± 0.34 × 10^-9 M

CSCC[C@H](NC=O)C(=O)N[C@@H](CCSC)C(=O)N[C@@H](Cc1ccccc1)C(=O)O [f--Met--Met--Phe--OH] (For-Met-Met-Phe-OH)
Chemotactic Activity ED50 ± SE [1, 13]: 2.1 ± 0.49 × 10^-10 M
ED50 ± SE B-Glucoronidase [2]: 1.8 ± 0.24 × 10^-9 M
ED50 ± SE Lysosyme [2]: 1.9 ± 0.4 × 10^-9 M

CSCC[C@H](NC=O)C(=O)N[C@@H](Cc1ccccc1)C(=O)O [f--Met--Phe--OH] (For-Met-Phe-OH)
Chemotactic Activity ED50 ± SE [1, 13]: 4.1 ± 0.95 × 10^-7 M
ED50 ± SE B-Glucoronidase [2]: 2.0 ± 0.42 × 10^-6 M
ED50 ± SE Lysosyme [2, 14]: 1.5 ± 0.39 × 10^-6 M

CCCC[C@H](NC=O)C(=O)N[C@@H](CC(C)C)C(=O)N[C@@H](Cc1ccccc1)C(=O)O [f--Nle--Leu--Phe--OH] (For-[Nle]-Leu-Phe-OH)
Chemotactic Activity ED50 ± SE [1]: 6.6 ± 1.2 × 10^-10 M
ED50 ± SE B-Glucoronidase [2]: 1.9 ± 0.2 × 10^-9 M
ED50 ± SE Lysosyme [2]: 1.5 ± 0.2 × 10^-9 M

CSCC[C@H](NC=O)C(=O)N[C@@H](Cc1ccccc1)C(=O)N[C@@H](CC(C)C)C(=O)O [f-Met-Phe-Leu-OH] (For-Met-Phe-Leu-OH)
times less active than f-Met-Leu-Phe-OH ([1]; chemotactic and lysosomal enzyme secretion-inducing activities): 500 times

formyl-Met-Leu-phe-silver sulfadiazine [FMLP-AgSDZ]
ED50, M concentration giving 50% max activity [10]: 96 nM
ED50, M concentration giving 50% max activity ([10]; listed as FMLP--AgSDZ): 78 nM
ID50, molar concentration which displaced 50% of a labeled attractant from the cell receptor ([4]; F-Nle-leu (3H)PHE, rabbit PMN): 2 nM
MIC at 24h [11]: 40 μg/m and 80 μg/m
concentration at which all strains were inhibited (MIC Technique) [12]: 80 μm/ml

gramicidin
chemoattractant concentration [8]: 10^-5 to 10^-6 M

tyrocidin
chemoattractant concentration [8]: 10^-5 to 10^-6 M
